According to PubChem BioAssay (NCI):
Several values for one entry are separate records, joined by “and”; a condition that tells them apart may be missing. Equal values may be shown once.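 Protocol summary: plate cells (96-well), add compound at 5 concentrations, incubate 48 h, interpolate endpoints linearly. GI50 marks 50% less growth. TGI: total growth inhibition.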

Experiments:
Assay in all cases: DTP human tumour cell line panel, 48 h
786-0 renal = tested on: 786-0 renal
A498 renal = tested on: A498 renal
HOP-92 NSCLC = tested on: HOP-92 NSCLC
HT29 colon = tested on: HT29 colon
K-562 leukemia = tested on: K-562 leukemia
NCI-H522 lung = tested on: NCI-H522 lung
SNB-19 CNS = tested on: SNB-19 CNS
SNB-75 CNS = tested on: SNB-75 CNS
SW-620 colon = tested on: SW-620 colon
U251 CNS = tested on: U251 CNS

Row | SMILES | GI50 (786-0 renal) [µM] | TGI (786-0 renal) | GI50 (A498 renal) [µM] | TGI (A498 renal) [µM] | GI50 (HOP-92 NSCLC) [µM] | TGI (HOP-92 NSCLC) | GI50 (HT29 colon) [µM] | TGI (HT29 colon) | GI50 (K-562 leukemia) [µM] | TGI (K-562 leukemia) | GI50 (NCI-H522 lung) [µM] | TGI (NCI-H522 lung) | GI50 (SNB-19 CNS) [µM] | TGI (SNB-19 CNS) | GI50 (SNB-75 CNS) | TGI (SNB-75 CNS) | GI50 (SW-620 colon) [µM] | TGI (SW-620 colon) [µM] | GI50 (U251 CNS) [µM] | TGI (U251 CNS)
1 | NC(N)=N/N=C\c1ccc(OCc2ccccc2)cc1 | 1.66 | 3.17 µM | 2.31 | 9.7 | 1.05 | 4.24 µM | 1.87 | 3.87 µM | 2.65 | 5.91 µM | 1.52 | 3.15 µM | 3.08 | 15.4 µM | 1.64 µM | 4.7 µM | 1.64 | 3.3 | 1.62 | 3.17 µM
2 | COc1ccc(-c2ccc(OC)c(OC)c2OC)cc1 | 8.23 | 82.2 µM | 2.27 | > 31.2 | 1.32 | 63 µM | 0.529 | > 100 µM | 0.431 | > 100 µM | 1.56 | > 27.9 µM | 4.83 | > 100 µM | 3.34 µM | > 100 µM | 0.528 | > 100 | 2.01 | > 100 µM
3 | Cn1c(COC(=O)NCCc2ccccn2)nc2c(N3CCOCC3)nc(Cl)nc21 | 1.34 | 2.95 µM | 1.53 | 6.36 | 1.13 | 3.22 µM | 1.17 | 3.17 µM | 1.63 | 75.2 µM | 1.35 | 3.16 µM | 3.97 | 16.1 µM | 1.38 µM | 11.8 µM | 1.28 | 2.98 | 1.63 | 3.34 µM
4 | CCCC(=O)O[C@]1(C)CC[C@@H]2[C@H]3[C@@H]1[C@@H]1C[C@@](C)(O)[C@H](OC)CC[C@](C)(OC(=O)[C@@H]2C)[C@H]3O1 | > 100 | > 100 µM | 35.4 | > 100 | 17.6 | 31.4 µM | 26.9 | 69.7 µM | 14.4 | 27.5 µM | 32 | > 100 µM | 32.1 | > 100 µM | 16.3 µM | 39.2 µM | 34.4 | > 100 | 56.9 | > 100 µM
5 | COC(=O)C1CC(c2ccc(OC)c(OC)c2)OC1=O (mixture of isomers) | – | > 100 µM | – | > 100 | – | > 100 µM | – | > 100 µM | – | > 100 µM | – | > 100 µM | – | > 100 µM | – | > 100 µM | – | > 100 | – | > 100 µM
6 | COc1ccc(-n2cc(-c3ccc(OC)c(OC)c3)[nH]c2=O)cc1 | > 100 | > 100 µM | > 100 | > 100 | > 100 | > 100 µM | > 100 | > 100 µM | > 100 | > 100 µM | > 100 | > 100 µM | > 100 | > 100 µM | 12.1 µM | 99.3 µM | > 100 | > 100 | > 100 | > 100 µM
7 | O=S(=O)(NC1=NCCN1C(=S)SN1CCn2c1nsc2=S)c1ccc(Cl)cc1 | 16.6 | 32.4 µM | 17.4 | 42.2 | 11.4 | 25.2 µM | 7.34 | > 100 µM | 5.21 | > 100 µM | 4.74 | 18.4 µM | 14.5 | 36.4 µM | 12.3 µM | 35.6 µM | 4.42 | 17.9 | 10.9 | 24.4 µM
8 | CN(C)CCC(=O)Nc1ccc(-n2cc(-c3cccc(NC(=S)Nc4cccc(-c5cn(-c6ccc(NC(=O)CCN(C)C)cc6)nn5)c4)c3)nn2)cc1 | > 100 | > 100 µM | > 100 | > 100 | 19.5 | 53.9 µM | 6.03 | > 100 µM | 4.49 | > 100 µM | 27.3 | > 100 µM | 49.5 | > 100 µM | 25.6 µM | 65.6 µM | 4.26 | > 100 | 21.4 | 80.8 µM
9 | c1ccc2c(c1)[nH]c1c2nc2ccccn21 | – | > 100 µM | – | > 100 | – | > 100 µM | – | > 100 µM | – | > 100 µM | – | > 100 µM | – | > 100 µM | 45.6 µM and > 100 µM | > 100 µM | – | > 100 | – | > 100 µM
10 | O=c1[nH]c(C2CCCN2)nc2c1oc1ccc(Cl)cc12 (centres undefined) | > 100 | > 100 µM | 1.77 | 25 | 12.4 | > 91.1 µM | > 100 | > 100 µM | > 84.4 | > 100 µM | 26.9 | > 100 µM | 68.1 | > 100 µM | 17.9 µM | > 100 µM | 49.4 | > 100 | 36.2 | > 100 µM
11 | Cc1cc(Cl)ccc1NC(=O)CCCC(=O)C1C/C(=N/O)CC/C1=N\O (centres undefined) | – | > 100 µM | – | > 100 | – | > 100 µM | – | > 100 µM | – | > 100 µM | – | > 100 µM | – | > 100 µM | – | > 100 µM | – | > 100 | – | > 100 µM
12 | O=C1C(=O)c2c(nc3ccc(C(F)(F)F)cn23)-c2ccccc21 | 0.396 | 0.835 µM | 1.82 | 3.25 | 0.265 | 0.773 µM | 0.923 | 3.61 µM | 0.175 | 0.787 µM | 0.206 | 0.549 µM | 0.303 | 0.763 µM | 0.202 µM | 0.465 µM | 0.192 | 0.397 | 0.185 | 0.377 µM
13 | Oc1ccc(Cl)cc1C=Nc1cnc2ccccc2c1 | – | > 100 µM | – | > 100 | – | > 100 µM | – | > 100 µM | – | > 100 µM | – | > 100 µM | – | > 100 µM | – | > 87.6 µM | – | > 100 | – | > 70.6 µM
14 | C[C@@]1(F)[C@H](O)[C@@H](CO)O[C@H]1n1ccc(=O)[nH]c1=O | > 100 | > 100 µM | > 100 | > 100 | > 100 | > 100 µM | > 100 | > 100 µM | > 100 | > 100 µM | > 100 | > 100 µM | > 100 | > 100 µM | > 100 µM | > 100 µM | > 100 | > 100 | > 100 | > 100 µM
15 | C[C@@H]1C[C@@H]([C@H](O)CC2CC(=O)NC(=O)C2)C(=O)[C@@H](C)C1 | 0.186 | 3.31 µM and 3.56 µM | 0.854 | – | 0.178 | 7.57 µM and 2.05 µM | 0.272 | 1.97 µM and 2.4 µM | 0.165 | 11.9 µM and 2.93 µM | 0.126 | 0.643 µM and 0.549 µM | 0.282 | 15.8 µM and > 94.6 µM | 0.333 µM | 4.93 µM and 1.43 µM | 0.219 | 1.23 | 0.237 | 2.67 µM and 12.6 µM
16 | Cc1n[nH]c2ccccc2c1=O | – | > 100 µM | – | > 100 | – | > 100 µM | – | > 100 µM | – | > 100 µM | – | > 100 µM | – | > 100 µM | – | > 100 µM | – | > 100 | – | > 100 µM
17 | COc1c2ccoc2nc2c(OC)c(OCC(O)C(C)(C)O)ccc12 (centres undefined) | – | > 100 µM | – | > 100 | – | > 100 µM | – | > 100 µM | – | > 100 µM | – | > 100 µM | – | > 100 µM | – | > 100 µM | – | > 100 | – | > 100 µM
18 | [N-]=[N+]=CC(=O)CCC(N)C(=O)O (centres undefined) | 7.17 | > 250 µM | 7.72 | > 250 | – | 69.3 µM | 0.727 | 75.7 µM | 3.27 | > 250 µM | 0.963 | > 149 µM | 10.1 | > 250 µM | 39.4 µM | 191 µM | 12.6 | > 250 | 6.59 | > 250 µM
19 | Nc1cc2c3c(cccc3c1)C(=O)N(CCN1CCCC1)C2=O | 4.5 | > 55.7 µM | 2.54 | 7.89 | 2.94 | > 54.4 µM | 3.11 | 22.2 µM | 3.75 | > 37.6 µM | 3.46 | 19.4 µM | 3.33 | 29 µM | 3.4 µM | 17 µM | 2.39 | > 53.8 | 3.4 | > 100 µM
20 | CC(C)(C)C[C@H]1N[C@@H](C(=O)NC2CCC(O)CC2)[C@H](c2cccc(Cl)c2F)[C@@]12C(=O)Nc1cc(Cl)ccc12 (some centres undefined) | 4.22 | 15.4 µM | 1.11 | 10.3 | 3.28 | 15 µM | 4.34 | 19.9 µM | 4.15 | 18.7 µM | 7.89 | 22.9 µM | 5.93 | 21.3 µM | 3.78 µM | 17.9 µM | 12.3 | 29.4 | 7.86 | 21.9 µM
21 | CCOC(=O)Nc1ccc2nc(-c3cscn3)[nH]c2c1 | 9.16 | > 100 µM | 3.5 | 21 | > 26.2 | > 100 µM | 2.6 | 97.5 µM | 0.942 | > 100 µM | 2.43 | 21 µM | 5.73 | > 100 µM | 2.84 µM | 29.4 µM | 2.95 | > 100 | 4.05 | > 100 µM
